Measured values: paper PMC13294191, “Oral peptide drug delivery: design of SEDDS providing a protective effect against intestinal membrane-bound enzymes” (Drug Delivery and Translational Research, 2025)
Where a SMILES comes first, the peptide text is derived from it.

How the values were obtained:
[1] = biological target: T1, Aminopeptidase N from porcine kidney (Sus scrofa, UniProt P15145); experiment: Inhibitory activity of SEDDS and excipients towards isolated aminopeptidase N; assay type: biochemical; conditions: excipient (caprylic acid 20 µL or citronellol 10 µL) solubilized with 20 µL PEG-35 castor oil in HBS pH 6.5, 500 µL; 500 µL of 41.6 mU/mL enzyme; 5 mM L-Leucine-4-nitroanilide; 1 h, 37 °C, 400 rpm; n ≥ 3
T1 construct: purchased Merck KGaA (Darmstadt, Germany); host or cells: porcine kidney (tissue-derived enzyme suspension)
T1 sequence (P15145 1-963): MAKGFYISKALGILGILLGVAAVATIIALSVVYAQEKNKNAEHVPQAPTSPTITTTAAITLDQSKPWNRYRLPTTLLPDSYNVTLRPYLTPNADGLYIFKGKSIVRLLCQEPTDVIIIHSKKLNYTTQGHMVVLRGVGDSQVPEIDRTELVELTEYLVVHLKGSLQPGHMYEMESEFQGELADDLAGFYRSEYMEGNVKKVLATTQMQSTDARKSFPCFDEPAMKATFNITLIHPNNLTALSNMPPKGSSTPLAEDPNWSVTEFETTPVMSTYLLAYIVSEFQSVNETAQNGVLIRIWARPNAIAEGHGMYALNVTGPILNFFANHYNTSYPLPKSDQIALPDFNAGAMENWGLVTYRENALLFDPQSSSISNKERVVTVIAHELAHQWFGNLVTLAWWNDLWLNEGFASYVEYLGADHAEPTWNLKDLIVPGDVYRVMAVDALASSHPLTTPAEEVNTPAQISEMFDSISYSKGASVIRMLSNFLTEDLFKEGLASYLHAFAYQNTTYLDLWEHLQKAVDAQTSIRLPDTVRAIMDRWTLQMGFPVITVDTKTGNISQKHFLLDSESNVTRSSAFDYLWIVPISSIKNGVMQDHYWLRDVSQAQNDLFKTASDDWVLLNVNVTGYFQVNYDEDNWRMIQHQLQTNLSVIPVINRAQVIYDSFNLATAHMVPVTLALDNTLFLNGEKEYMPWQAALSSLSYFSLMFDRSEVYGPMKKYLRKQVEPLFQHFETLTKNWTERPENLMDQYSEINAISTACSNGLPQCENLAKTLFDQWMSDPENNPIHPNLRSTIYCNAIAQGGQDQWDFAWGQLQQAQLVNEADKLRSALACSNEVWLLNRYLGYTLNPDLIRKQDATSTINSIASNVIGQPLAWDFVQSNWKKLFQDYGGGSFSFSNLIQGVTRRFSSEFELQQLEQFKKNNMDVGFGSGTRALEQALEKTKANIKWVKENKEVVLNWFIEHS
Method: Furthermore, a possible inhibitory effect of SEDDS and excipients on aminopeptidase N activity was investigated using the isolated enzyme, following a method previously described with slight modifications [28]. Surfactant solutions were prepared in 20 mM HBS pH 6.5 in the same concentration as they are present in SEDDS. Either 5% (v/v) SEDDS or surfactant solution were mixed in 500 µL together with further 500 µL of a 41.6 mU/mL enzyme solution in 20 mM HBS pH 6.5. L-Leucine- 4-nitroanilide was added prior to SEDDS and surfactant solution in a final concentration of 5 mM.
A 5 mM substrate solution served as the positive control, representing 100% enzyme activity. The samples were incubated on a thermomixer for 1 h at 37 °C and 400 rpm agitation. To stop the enzymatic reaction, 1 mL of methanol containing 2% (v/v) TFA were added to each sample. After centrifugation at 12,500 rpm, the concentration of 4-nitroaniline in the supernatant was quantified. The inhibitory activity was calculated using the following Eq. (5):5 Inhibitoryactivity[%]=100-Abssample/Abspositivecontrol×100

[2] = pH 6.5
Method: The rat intestine was carefully cleaned to remove its intestinal contents and then cut into 1.5 cm sections. These sections were fixed in Ussing chambers with a surface area of 0.64 cm^2 and 1 mL of 20 mM HBS pH 6.5 was added to each acceptor chamber, while the donor chambers were filled with 1 mL of 5% (v/v) SEDDS in 20 mM HBS pH 6.5, facing the luminal side of the intestine.
The Ussing chambers were incubated in a water bath at 37 °C, and every 1 h, 100 µL aliquots were withdrawn from the acceptor chambers over a 4 h period. Withdrawn samples were replaced with pre-warmed HBS to maintain sink conditions. The concentration of permeated tuftsin in the collected aliquots was determined via HPLC and the apparent permeability coefficient [30]was subsequently calculated using the following Eq. (6):6 Papp[cms^-1]=Q[μg]/Acm^2cμgmL^-1t[s] where Papp is the apparent permeability coefficient, Q is the total amount of test substance permeated through the mucosa, A is the diffusion area of the Ussing chamber system, c is the initial concentration of tuftsin in the donor compartment and t is the total time of experiment.

[3] = biological target: T2, membrane-bound aminopeptidase N on rat intestinal mucosa (Rattus norvegicus, UniProt P15684)
T2 sequence (P15684 1-965): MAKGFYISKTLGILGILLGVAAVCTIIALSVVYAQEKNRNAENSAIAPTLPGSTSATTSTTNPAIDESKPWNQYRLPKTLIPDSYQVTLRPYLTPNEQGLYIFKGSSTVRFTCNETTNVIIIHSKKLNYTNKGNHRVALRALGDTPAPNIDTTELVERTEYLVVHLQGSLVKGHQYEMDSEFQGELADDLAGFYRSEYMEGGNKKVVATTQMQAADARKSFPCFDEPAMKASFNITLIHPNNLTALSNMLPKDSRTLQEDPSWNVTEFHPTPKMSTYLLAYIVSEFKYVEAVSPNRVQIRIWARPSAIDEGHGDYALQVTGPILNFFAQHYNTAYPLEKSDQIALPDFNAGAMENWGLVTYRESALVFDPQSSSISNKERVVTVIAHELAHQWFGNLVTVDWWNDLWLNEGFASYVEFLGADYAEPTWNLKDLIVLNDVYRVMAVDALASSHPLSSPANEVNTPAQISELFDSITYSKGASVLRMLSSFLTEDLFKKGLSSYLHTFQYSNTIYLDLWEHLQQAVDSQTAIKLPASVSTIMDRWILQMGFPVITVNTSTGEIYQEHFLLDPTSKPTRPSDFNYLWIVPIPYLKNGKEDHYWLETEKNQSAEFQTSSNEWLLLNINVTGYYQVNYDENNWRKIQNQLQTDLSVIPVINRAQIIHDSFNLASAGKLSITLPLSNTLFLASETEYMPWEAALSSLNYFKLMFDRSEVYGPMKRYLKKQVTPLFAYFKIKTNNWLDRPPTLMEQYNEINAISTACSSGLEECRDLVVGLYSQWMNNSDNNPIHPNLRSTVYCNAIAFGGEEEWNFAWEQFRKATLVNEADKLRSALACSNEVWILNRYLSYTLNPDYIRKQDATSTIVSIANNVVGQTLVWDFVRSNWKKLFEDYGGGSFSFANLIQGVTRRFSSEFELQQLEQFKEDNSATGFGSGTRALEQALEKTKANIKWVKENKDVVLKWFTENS
Method: Rat intestine was obtained freshly from male Sprague–Dawley rats (200–300 g) supplied by Janvier Labs (Saint Berthevin, France). The middle section of the small intestine was longitudinally dissected and thoroughly washed with HBS pH 6.5 to remove intestinal contents. The intestine was stored at − 20 °C in HBS until further use.
After thawing the small intestine was cut into 1 × 1 cm pieces that were placed in tubes containing 500 µL of HBS. SEDDS with dissolved HIP were emulsified in a concentration of 10% (v/v) in HBS. 500 µL of nanoemulsions were added to each tube to obtain a final concentration of 5% (v/v) SEDDS. Thereafter, samples were incubated on a thermomixer at 37 °C with continuous agitation at 400 rpm. Over a 4 h time period, 100 µL aliquots were withdrawn from each sample at predefined time intervals. To terminate the enzymatic reaction, an equal volume of methanol containing 2% (v/v) TFA was added to each aliquot. Subsequently, the concentration of tuftsin in the supernatant was quantified using HPLC.

| Inhibitory activity of single SEDDS-3 excipients towards aminopeptidase N [1] [%] | Apparent permeability coefficient (Papp) of tuftsin [2] | Tuftsin permeated after 4 h of cumulative permeation (% of initial tuftsin) [2] [%] | Time to entire degradation of the unformulated peptide (abstract) [3] [min] | SMILES |
| --- | --- | --- | --- | --- |
| 18 | – | – | – | CC(C)=CCCC(C)CCO (stereo not shown) [citronellol] |
| – | 0.8 × 10^–5 cm/s | 7 | ≤ 20 | C[C@@H](O)[C@H](N)C(=O)N[C@@H](CCCCN)C(=O)N1CCC[C@H]1C(=O)N[C@@H](CCCNC(=N)N)C(=O)O [tuftsin, Tuftsin] (H-TKPR-OH) |
